# Laboratory results as given in the OligoGym collection.
# Several values for one entry are separate records, joined by “and”; a condition that tells them apart may be missing. Equal values may be shown once. After the bases stand the sugars from the 5' end (letter, count) and the backbone: PS all phosphorothioate, else s phosphorothioate and o phosphodiester by linkage. Methylation of C is not given here. e = 2'-O-(2-methoxyethyl) (MOE); k = constrained ethyl (cEt); d = 2'-deoxy (DNA)
# Biological target: IRF4
# Settings: ASO, MM.1R, 0.0625 µM
row,Sequence,target mRNA inhibition [%]
1,"TGGGATTATATACTGG (sugars kkddddddddddkeke, PS)",21

# Same assay, conditions: ASO, MM.1R, 0.074 µM
row,Sequence,target mRNA inhibition [%]
1,"CTCTATAGTGTTCCAG (sugars k3 d9 k3 e1, PS)",14
2,"TCAAAGTCATTGCTCT (sugars k4 d8 k4, PS)",-3

# Same assay, conditions: ASO, MM.1R, 0.222 µM
row,Sequence,target mRNA inhibition [%]
1,"CTCTATAGTGTTCCAG (sugars k3 d9 k3 e1, PS)",30
2,"TCAAAGTCATTGCTCT (sugars k4 d8 k4, PS)",6

# Same assay, conditions: ASO, MM.1R, 0.25 µM
row,Sequence,target mRNA inhibition [%]
1,"TGGGATTATATACTGG (sugars kkddddddddddkeke, PS)",43

# Same assay, conditions: ASO, MM.1R, 0.666 µM
row,Sequence,target mRNA inhibition [%]
1,"CTCTATAGTGTTCCAG (sugars k3 d9 k3 e1, PS)",54
2,"TCAAAGTCATTGCTCT (sugars k4 d8 k4, PS)",6

# Same assay, conditions: ASO, MM.1R, 1 µM
row,Sequence,target mRNA inhibition
1,"GTTGTAAATGAGTCGG (sugars kkdddddddddekeke, PS)",48%
2,"TGTAACGCACCCGCAG (sugars k3 d10 k3, PS)",-4%
3,"CCAGAGCAGTAAACGC (sugars k3 d10 k3, PS)",11%
4,"TGGGATTATATACTGG (sugars kkddddddddddkeke, PS)",68% and 60%
5,"CGTGTGCTTGCCAAGC (sugars kkdddddddddkekek, PS)",49% and 43%
6,"TCTATAGTGTTCCAGG (sugars kkdddddddddkekek, PS)",28%
7,"GTGTCTAAAGTCCCAT (sugars kkdddddddddkdkdk, PS)",20% and 5%
8,"CTCTATAGTGTTCCAG (sugars k3 d9 k3 e1, PS)",65%
9,"AAGCATTTTATCATCC (sugars e1 k2 d9 k2 e2, PS)",14%
10,"GATGAGATATTCCTCT (sugars k3 d10 k3, PS)",-24%
11,"AGTGTCTAAAGTCCCA (sugars kddddddddddkekek, PS)",-1% and 3%
12,"GATTATATACTGGTTG (sugars kkdddddddddkekek, PS)",45%
13,"TCAACCAGTTCCTCAA (sugars k3 d10 k3, PS)",-23%
14,"TCGAATCTGCCCAAAG (sugars k3 d10 k3, PS)",23%
15,"ACGGAAGTTTACACTG (sugars kdddddddddkekeke, PS)",2%
16,"TGATAGCTGAGCTGAT (sugars kkdddddddddekeke, PS)",15%
17,"AACGAGCCAGTGCACA (sugars k3 d10 k3, PS)",-1%
18,"ATTATATACTGGTTGG (sugars k2 d9 e3 k2, PS)",37%
19,"AAGTTCATGTAAAGTC (sugars k3 d10 k3, PS)",43% and 41%
20,"ACTTTTAGAGAGGAGA (sugars kkdddddddddkdkdk, PS)",34%
21,"TGTAGTATGAGAAACG (sugars kkkdddddddddkeke, PS)",29%
22,"AATGTGTATTACTCTT (sugars kdddddddddkekeke, PS)",12% and 15%
23,"GATGTGATAGCTGAGC (sugars kkddddddddddkeke, PS)",64%
24,"TGGGATGCCACCATCC (sugars k3 d10 k3, PS)",-2%
25,"ATTCCGCGCGCAGAGC (sugars k3 d10 k3, PS)",-21%
26,"TTCATGTAAAGTCTGC (sugars kkdddddddddekeke, PS)",32% and 39%
27,"TGCTTGAGGTTTTCCT (sugars kkkddddddddkekek, PS)",27%
28,"TCCATAGAGCCAGAGC (sugars k3 d10 k3, PS)",20%
29,"TGCTGCAAATCCCTCT (sugars k3 d10 k3, PS)",21%
30,"GAATGGCGGATAGATC (sugars k3 d10 k3, PS)",-3%

# Same assay, conditions: ASO, MM.1R, 2 µM
row,Sequence,target mRNA inhibition [%]
1,"CTCTATAGTGTTCCAG (sugars k3 d9 k3 e1, PS)",76
2,"TCAAAGTCATTGCTCT (sugars k4 d8 k4, PS)",13

# Same assay, conditions: ASO, MM.1R, 4 µM
row,Sequence,target mRNA inhibition [%]
1,"TGGGATTATATACTGG (sugars kkddddddddddkeke, PS)",83

# Same assay, conditions: ASO, SK-MEL-28, 0.185 µM
row,Sequence,target mRNA inhibition
1,"TCAAAGTCATTGCTCT (sugars k4 d8 k4, PS)",4% and -4% and 0%
2,"CGCAGAGCCAGTAGGG (sugars k3 d10 k3, PS)",16% and 4% and 12%

# Same assay, conditions: ASO, SK-MEL-28, 4 µM
row,Sequence,target mRNA inhibition [%]
1,"GGCCTGGAGGTGACGC (sugars k3 d10 k3, PS)",41
2,"TTGGAAACCAGCCCTT (sugars k3 d10 k3, PS)",39
3,"CACCGAACACACCAGG (sugars k3 d10 k3, PS)",20
4,"GCCCAAAGGCTCCCGA (sugars k3 d10 k3, PS)",11
5,"AACAGATAGTTAAGTA (sugars k3 d10 k3, PS)",19
6,"GCTGATGGAGAAACGA (sugars k3 d10 k3, PS)",7
7,"AGTTAAGGTGCCTCAA (sugars k3 d10 k3, PS)",-1
8,"AGCCATCGGCAGCTGA (sugars k3 d10 k3, PS)",14
9,"AATAAACACCCCTTCT (sugars k3 d10 k3, PS)",21
10,"TCTAGTTTGCCAATTC (sugars k3 d10 k3, PS)",62
11,"TGCCGAGATATAAATA (sugars k3 d10 k3, PS)",23
12,"TTCATAGCTAGTTCAT (sugars k3 d10 k3, PS)",44
13,"GACAAGTGGCGCAGAC (sugars k3 d10 k3, PS)",11
14,"GCCGCCCTCCAGGTTC (sugars k3 d10 k3, PS)",49
15,"TTGCAGAGCAATTTAC (sugars k3 d10 k3, PS)",50
16,"TTTCAAATCGACTGCC (sugars k3 d10 k3, PS)",31
